We go through 28 compounds from patent publication US5977169A, “Substituted tetronic acids useful for treating HIV and other retroviruses” (priority 1997, dated 1999).

The assay has as its target T1, HIV-1 protease (Human immunodeficiency virus type 1 group M subtype B, UniProt P04585).
T1 construct: The protease (or proteinase) enzyme, consisting of only 99 amino acids
The experiment in a line: In vitro HIV protease inhibitory assay (fluorescently labeled substrate, avidin-polystyrene particles). It is filed as biochemical. Conditions: for inhibition at 3.3 µM: HIV-1 dose 3.3 μM; for inhibition at 10 µM: HIV-1 dose 10.0 μM; for inhibition at 30 µM: HIV-1 dose 30.0 μM; for inhibition at 1 µM: HIV-1 dose 1.0 μM; for inhibition at 100 µM: HIV-1 dose 100.0 μM; for inhibition at 1.1 µM: HIV-1 dose 1.1 μM. Here is the method: The HIV protease screening assay is based on a fluorescently labeled substrate which can be resolved from nonlabeled cleavage product using avidin-polystyrene particles, 0.7-0.9 μm. The substrate is biotinylated at the amino terminal arginine and fluorescently labeled with fluorescein isothiocynate (FITC) at the carboxyl terminal lysine. This assay has been employed to detect novel, nonpeptidic inhibitors of HIV-1 protease. Substrate (20 μl of 0.2 μM), sample (10 μl of desired concentraion), and enzyme (10 μl of 0.1 μM) are added to a 96 well pandex plate. The assay is run in 0.1 M sodium acetate buffer at pH 5.5 in the presence of 1.0 M sodium chloride and 0.05% NP-40 and incubated in the dark for one hour at room temperature. Avidin coated polystyrene beads (40 μl of 0.1% (w/v)) are added and the incubation is continued in the dark for an additional half hour. The labeled cleavage product is separated from the unreacted substrate via filtration and is read on the IDEXX Screen Machine. (IDEXX Corporation--Portland, Me.) The data are analyzed by appropriate computer algorithms to ascertain percent inhibition values.
The Activity Table showing the results of the HIV Protease Inhibitory Assay appears below in TABLE 1. The table has three columns, the left column provides the code number of the compound for easy cross reference to structure tables and detailed procedures, the middle column provides the concentration of test compound and the column on the right provides the percent inhibition.

Molecules are shown by their SMILES.

Take `CCCCC(CCc1ccccc1)C1OC(=O)C(C(c2ccccc2)C2CC2)=C1O` (single isomer, unassigned) [GX-1, 2(5H)-Furanone, 3-(cyclopropylphenylmethyl)-4-hydroxy-5-(1-(2-phenyl-ethyl)pentyl)-]: the inhibition (in general, the drop in the measured response relative to a control, in per cent) at 3.3 µM amounted to 74.6%; the inhibition at 10 µM turned out to be 89.2%; the inhibition at 30 µM came out at 74%.

As for `CCC1CCCCC12OC(=O)C(C(c1ccccc1)C1CC1)=C2O` (single isomer, unassigned) [IX-33, 1-Oxaspiro[4.5]dec-3-en-2-one, 3-(cyclopropylphenylmethyl)-4-hydroxy-6-ethyl-], the inhibition at 3.3 µM came to 99%, the inhibition at 10 µM amounted to 99.4% and the inhibition at 30 µM amounted to 97.6%.

On to `O=C1OC(Cc2ccccc2)C(O)=C1C(c1ccccc1)C1CC1` (stereo not drawn) [BX-1, 5H-Furan-2-one, 5-benzyl-3-cyclopropylphenylmethyl-4-hydroxy-], for which the inhibition at 1 µM was 18.7%, the inhibition at 10 µM worked out at 80.1% and the inhibition at 100 µM was 90.5%.

Consider `O=C1OC(CCc2ccccc2)C(O)=C1C(c1ccccc1)C1CC1` (stereo not drawn) [BX-2, 2(5H)-Furanone, 3(cyclopropylphenylmethyl)-4-hydroxy-5-(2-phenylethyl)-], for which the inhibition at 1 µM was found to be 47.2%, the inhibition at 10 µM is 81% and the inhibition at 100 µM stood at 81.4%.

Turning to `O=C1OC(CCCc2ccccc2)C(O)=C1C(c1ccccc1)C1CC1` (stereo not drawn) [BX-3, 2(5H)-Furanone, 3-(cyclopropylphenylmethyl)-4-hydroxy-5-(3-phenylpropyl)-], the inhibition at 1 µM was 46%, the inhibition at 10 µM came to 90.6% and the inhibition at 100 µM was determined as 93.2%.

Consider `CCCC1OC(=O)C(C(c2ccccc2)C2CC2)=C1O` (stereo not drawn) [BX-4, 2(5H)-Furanone, 3-(cyclopropylphenylmethyl)-4-hydroxy-5-propyl-], for which the inhibition at 1 µM is below 10%, the inhibition at 10 µM was 61.1% and the inhibition at 100 µM came to 83.3%.

`O=C1OC(CCC2CCCCC2)C(O)=C1C(c1ccccc1)C1CC1` (stereo not drawn) [BX-5, 2(5H)-Furanone, 5-(2-cyclohexylethyl)-3-(cyclopropylphenylmethyl)-4-hydroxy-]: the inhibition at 1 µM was 12.6%, the inhibition at 10 µM came out at 61.2% and the inhibition at 100 µM came out at 71.5%.

On to `O=C1OC(CC=Cc2ccccc2)C(O)=C1C(c1ccccc1)C1CC1` (stereo not drawn) [BX-6, 2(5H)-Furanone, 3-(cyclopropylphenylmethyl)-4-hydroxy-5-(3-phenyl-2-propenyl)-], for which the inhibition at 3.3 µM is 65.7%, the inhibition at 10 µM was found to be 77.2% and the inhibition at 30 µM was 82.1%.

Turning to `O=C1OC(C(O)C=Cc2ccccc2)C(O)=C1C(c1ccccc1)C1CC1` (stereo not drawn) [BX-7, 2(5H)-Furanone, 3-(cyclopropylphenylmethyl)-4-hydroxy-5-(1-hydroxy-3--phenyl-2-propenyl)-], the inhibition at 3.3 µM is below 10%, the inhibition at 10 µM was 18% and the inhibition at 30 µM was 40%.

For the compound `O=C1OC(C(O)CCc2ccccc2)C(O)=C1C(c1ccccc1)C1CC1` (stereo not drawn) [BX-8, 2(5H)-Furanone, 3-(cyclopropylphenylmethyl)-4-hydroxy-5-(1-hydroxy-3--phenylpropyl)-], the inhibition at 3.3 µM was found to be 51%, the inhibition at 10 µM is 73.3% and the inhibition at 30 µM was determined as 78.2%.

On to `CCC(C1=C(O)C(Cc2ccccc2)OC1=O)c1ccccc1` (stereo not drawn) [BX-9, 2(5H)-Furanone, 4-hydroxy-5-(phenylmethyl)-3-(1-phenylpropyl)-], for which the inhibition at 3.3 µM worked out at 50.1%, the inhibition at 10 µM came to 75.1% and the inhibition at 30 µM stood at 86.1%.

`CC(C)C1OC(=O)C(C(c2ccccc2)C2CC2)=C1O` (stereo not drawn) [BX-10, 2(5H)-Furanone, 3-(cyclopropylphenylmethyl)-4-hydroxy-5-(1-methylethyl)-]: the inhibition at 3.3 µM amounted to 40.5%, the inhibition at 10 µM was 74.6% and the inhibition at 30 µM was determined as 98.6%.

On to `CCCCC1OC(=O)C(C(c2ccccc2)C2CC2)=C1O` (stereo not drawn) [BX-11, 2(5H)-Furanone, 5-butyl-3-(cyclopropylphenylmethyl)-4-hydroxy-], for which the inhibition at 3.3 µM turned out to be 45.1%, the inhibition at 10 µM was 78.3% and the inhibition at 30 µM was determined as 93.4%.

Regarding `CCCC1(CCC)OC(=O)C(C(c2ccccc2)C2CC2)=C1O` (stereo not drawn) [BX-12, 2(5H)-Furanone, 3-(cyclopropylphenylmethyl)-4-hydroxy-5,5-dipropyl-], the inhibition at 3.3 µM stood at 110%, the inhibition at 10 µM came to 112% and the inhibition at 30 µM was 95.3%.

Turning to `CC(C)C1(C(C)C)OC(=O)C(C(c2ccccc2)C2CC2)=C1O` (stereo not drawn) [BX-13, 2(5H)-Furanone, 3-(cyclopropylphenylmethyl)-4-hydroxy-5,5-bis(1-methylethyl)-], the inhibition at 1.1 µM turned out to be 94.1%, the inhibition at 3.3 µM turned out to be 104% and the inhibition at 10 µM turned out to be 108%.

Turning to `CCC1(CC)OC(=O)C(C(c2ccccc2)C2CC2)=C1O` (stereo not drawn) [BX-14, 2(5H)-Furanone, 3-(cyclopropylphenymethyl)-5,5-diethyl-4-hydroxy-], the inhibition at 3.3 µM turned out to be 92.7%, the inhibition at 10 µM was found to be 94% and the inhibition at 30 µM stood at 99%.

As to `CCCCC1(CCCC)OC(=O)C(C(c2ccccc2)C2CC2)=C1O` (stereo not drawn) [BX-15, 2(5H)-Furanone, 5,5-dibutyl-3-(cyclopropylphenylmethyl)-4-hydroxy-], the inhibition at 3.3 µM turned out to be 115%, the inhibition at 10 µM amounted to 118% and the inhibition at 30 µM was found to be 122%.

Consider `CCC(C1=C(O)C(CCc2ccccc2)OC1=O)c1ccccc1` (stereo not drawn) [BX-16, 2(5H)-Furanone, 4-hydroxy-5-(2-phenylethyl)-3-(1-phenylpropyl)-], for which the inhibition at 3.3 µM turned out to be 41.4%, the inhibition at 10 µM was 71.4% and the inhibition at 30 µM came to 80.3%.

On to `O=C1OC2(CCCC2)C(O)=C1C(c1ccccc1)C1CC1` (stereo not drawn) [CX-1, 1-Oxaspiro[4.4]non-3-en-2-one, 3-(cyclopropylphenylmethyl)-4-hydroxy-], for which the inhibition at 100 µM is 109%. For the same compound, the inhibition at 3.7 µM (HIV-1 dose 3.7 μM) turned out to be 109%. Moreover, where the note is “HIV-1 dose 11.0 μM”, the inhibition at 11 µM is 115%.

For the compound `O=C1OC2(CCCCCCC2)C(O)=C1C(c1ccccc1)C1CC1` (stereo not drawn) [CX-2, 1-Oxaspiro[4.7]dodec-3-en-2-one, 3-(cyclopropylphenylmethyl)-4-hydroxy-], the inhibition at 1.1 µM turned out to be 96%, the inhibition at 10 µM was determined as 104% and the inhibition at 30 µM came out at 110%.

On to `CC1(CCc2ccccc2)OC(=O)C(C(c2ccccc2)C2CC2)=C1O` (stereo not drawn) [CX-3, 2(5H)-Furanone, 3-(cyclopropylphenylmethyl)-4-hydroxy-5-methyl-5-(2--phenylethyl)-], for which the inhibition at 3.3 µM stood at 98.1%, the inhibition at 10 µM amounted to 111% and the inhibition at 30 µM is 118%.

For `CCCC1(CCCc2ccccc2)OC(=O)C(C(c2ccccc2)C2CC2)=C1O` (stereo not drawn) [DX-1, 2(5H)-Furanone, 3-(cyclopropylphenylmethyl)-4-hydroxy-5-(3-phenyl-propyl)-5-propyl-], the inhibition at 3.3 µM was determined as 108%, the inhibition at 10 µM was determined as 106% and the inhibition at 30 µM came out at 105%.

Regarding `CC1(Cc2ccccc2)OC(=O)C(C(c2ccccc2)C2CC2)=C1O` (stereo not drawn) [DX-2, 2(5H)-Furanone, 3-(cyclopropylphenylmethyl)-4-hydroxy-5-methyl-5-(phenyl-methyl)-], the inhibition at 3.3 µM is 94.5%, the inhibition at 10 µM worked out at 98.2% and the inhibition at 30 µM came out at 104%.

As to `CCC1(Cc2ccccc2)OC(=O)C(C(c2ccccc2)C2CC2)=C1O` (stereo not drawn) [DX-3, 2(5H)-Furanone, 3-(cyclopropylphenylmethyl)-5-ethyl-4-hydroxy-5-(phenyl-methyl)-], the inhibition at 3.3 µM was found to be 95.5%, the inhibition at 10 µM was 103% and the inhibition at 30 µM was 105%.

On to `CCCC1(Cc2ccccc2)OC(=O)C(C(c2ccccc2)C2CC2)=C1O` (stereo not drawn) [DX-4, 2(5H)-Furanone, 3-(cyclopropylphenylmethyl)-4-hydroxy-5-(phenyl-methyl)-5-propyl-], for which the inhibition at 3.3 µM was found to be 125%, the inhibition at 10 µM is 128% and the inhibition at 30 µM turned out to be 116%.

With `O=C1OC(Cc2ccccc2)(Cc2ccccc2)C(O)=C1C(c1ccccc1)C1CC1` (stereo not drawn) [DX-5, 2(5H)-Furanone, 3-(cyclopropylphenylmethyl)-4-hydroxy-5,5-bis(phenylmethyl)-], the inhibition at 3.3 µM stood at 103%, the inhibition at 10 µM is 116% and the inhibition at 30 µM came to 103%.

In the case of `CCCC1(Cc2cccnc2)OC(=O)C(C(c2ccccc2)C2CC2)=C1O` (stereo not drawn) [DX-6, 2(5H)-Furanone, 3-(cyclopropylphenylmethyl)-4-hydroxy-5-propyl-5-(3--pyridinylmethyl)-], the inhibition at 3.3 µM worked out at 103%, the inhibition at 10 µM is 102% and the inhibition at 30 µM was determined as 104%.

As to `CCC1(CCc2ccccc2)OC(=O)C(C(c2ccccc2)C2CC2)=C1O` (stereo not drawn) [DX-7, 2(5H)-Furanone, 3-(cyclopropylphenylmethyl)-5-ethyl-4-hydroxy-5-(2-phenyl-ethyl)-], the inhibition at 3.3 µM was 108%, the inhibition at 10 µM was 112% and the inhibition at 30 µM was 103%.
